Assay results as given in publication PMC3408624 (Chemistry & biology, 2012).
“Also recorded” adds a separate entry of the source. Like-named read-outs stand apart in the source and are kept apart here.

What was measured:
[1] = target: T1, anthrax lethal factor (LF) (Bacillus anthracis, UniProt P15917); assay: biochemical; assay type: biochemical
[2] = target: LF cleavage of endogenous MKK3 and MKK4 in RAW264.7 cell lysate (Bacillus anthracis, UniProt P15917); assay type: biochemical
[3] = test system: RAW264.7 cells; assay type: cell-based
[4] = target: T1, anthrax lethal factor (LF); assay: biochemical; assay type: biochemical; remark: listed apart in the source
[5] = test system: RAW264.7 cells; assay type: cell-based; remark: listed apart in the source
[6] = target: T1, anthrax lethal factor (LF); assay type: biochemical
[7] = read-out: IC50 (µM), MKK6 cleavage

LF cleavage of endogenous MKK3 and MKK4 in RAW264.7 cell lysate, sequence (P15917 34-809 limits assumed): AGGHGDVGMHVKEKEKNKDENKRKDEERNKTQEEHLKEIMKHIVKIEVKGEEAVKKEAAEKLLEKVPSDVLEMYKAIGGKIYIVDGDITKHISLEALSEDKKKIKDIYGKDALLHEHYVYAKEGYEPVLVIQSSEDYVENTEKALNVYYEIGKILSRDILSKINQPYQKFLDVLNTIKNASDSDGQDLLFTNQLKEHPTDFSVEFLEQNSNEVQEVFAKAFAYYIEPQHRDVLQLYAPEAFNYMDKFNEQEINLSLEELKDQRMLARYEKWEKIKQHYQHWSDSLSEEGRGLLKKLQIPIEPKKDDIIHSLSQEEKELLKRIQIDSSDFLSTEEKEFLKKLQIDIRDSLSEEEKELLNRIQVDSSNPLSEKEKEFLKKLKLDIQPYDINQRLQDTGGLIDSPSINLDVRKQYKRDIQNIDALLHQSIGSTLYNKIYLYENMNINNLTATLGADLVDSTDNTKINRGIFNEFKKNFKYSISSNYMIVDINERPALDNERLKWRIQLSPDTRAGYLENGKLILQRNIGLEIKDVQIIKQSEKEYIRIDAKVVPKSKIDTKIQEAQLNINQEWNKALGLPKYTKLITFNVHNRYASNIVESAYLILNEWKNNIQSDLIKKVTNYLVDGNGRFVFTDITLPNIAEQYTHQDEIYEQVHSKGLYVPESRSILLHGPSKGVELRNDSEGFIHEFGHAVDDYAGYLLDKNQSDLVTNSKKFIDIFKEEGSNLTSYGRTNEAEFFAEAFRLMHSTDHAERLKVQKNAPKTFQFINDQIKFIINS
T1 sequence (P15917 34-809 limits assumed): as above

Row | Compound | IC50 [1] [µM] | Inhibition of MKK3 cleavage by LF in cell lysate [2] | Inhibition of MKK4 cleavage by LF in cell lysate [2] | MKK3 cleavage in intact LeTx-treated cells [3] | Inhibition of LF cleavage of a peptide substrate (in words) [4] | Protection against LeTx-induced cell death (MTT viability) [5] | Inhibition of MKK6 cleavage by LF (structure-activity profile, in words) [1] | IC50 [1, 7] [µM] | other results
1 | COc1cc(C)c2c(c1C=O)Oc1c(c(C)c(O)c3c1C(O)OC3=O)OC2=O (centres unmarked) [Compound 1, Stictic acid] | 24 ± 3 | inhibited cleavage | inhibited cleavage | decreased MKK3 cleavage | weak inhibitors | partial protection | – | – | –
2 | Cc1cc(O)c(C=O)c2c1C(=O)Oc1c(CO)c(O)c3c(c1O2)C(O)OC3=O (centres unmarked) [Compound 2, Salazinic acid] | – | inhibited cleavage | inhibited cleavage | decreased MKK3 cleavage | weak inhibitors | partial protection | active as inhibitors | 42 ± 5 | Mode of inhibition of LF cleavage of MKK6 [1]: competitive inhibition; also recorded: increased KM with no effect on Vmax
3 | COc1cc(C(=O)O)c2c(c1C)OC(=O)c1c(C)cc(O)c(C=O)c1O2 [Compound 3, Parellic acid] | – | inhibited cleavage | inhibited cleavage | decreased MKK3 cleavage | weak inhibitors | partial protection | active as inhibitors | 125 ± 20 | –
4 | COC(=O)c1c(OC)cc2c(c1C)Oc1c(Cl)c(O)c(Cl)c(C)c1C(=O)O2 [Compound 4, Gangaleoidin] | > 250 | – | – | – | – | – | failed to inhibit LF | – | –
5 | CCCCCC(=O)Cc1cc(O)cc2c1C(=O)Oc1cc(O)c(C(=O)O)c(CCCCC)c1O2 [Compound 5, Physodic acid] | > 250 | – | – | – | – | – | failed to inhibit LF | – | –
6 | Cc1cc(OC(=O)c2c(C)cc(O)cc2O)cc(O)c1C(=O)O [Compound 6, Lecanoric acid] | – | – | – | – | – | failed to inhibit cell death | lack of inhibition | – | IC50 (µM), MKK6 cleavage [1]: No inhibition
7 | COC(=O)c1c(C)cc(OC(=O)c2c(C)cc(O)c(C=O)c2O)c(C)c1O [Compound 7, Atranorin] | – | – | – | – | – | failed to inhibit cell death | lack of inhibition | – | IC50 (µM), MKK6 cleavage [1]: No inhibition
8 | CNC(=O)[C@H](Cc1c[nH]c2ccccc12)NC(=O)[C@@H](CC(=O)NO)CC(C)C [GM6001, reference compound] | – | – | – | – | – | – | – | – | IC50 [4]: 9 µM; Result in primary FP screen for inhibition of LF cleavage of labeled MKK6 [6]: scored as a hit
9 | COc1ccccc1C=O [o-anisaldehyde, reference compound] | – | – | – | – | – | – | – | – | Inhibition of MKK6 cleavage by LF (in words) [1]: no detectable inhibition
10 | Reduced stictic acid [Compound 8] | – | – | – | – | – | – | – | > 250 | –
